Earlier results, collected in patent US20120142546A1, “HYPOMETHYLATED GENES IN CANCER” (THE JOHNS HOPKINS UNIVERSITY, priority 2007, published 2012).

Test system: cancers involving the lung, esophagus, or pleura

Nc1ncn([C@H]2C[C@H](O)[C@@H](CO)O2)c(=O)n1 [5-aza-2′-deoxycytidine]
NY-ESO-1 and MAGEA3 expression in treated patients: upregulated in a proportion of patients
